Reference: patent US6656970B2, “Method and compositions for solubilization of pentacyclic triterpenes” (Dabur Research Foundation, priority 2000, dated 2003)
≈ marks a conversion by molar mass, not a printed value.

Assays:
[1] = tested on: human melanomas; conditions: cited from earlier work
[2] = Solubility in individual solvents; format: physicochemical
Protocol: (§1) The solubility of betulinic acid and its derivatives was determined in various individual solvents. Based on the solubility of betulinic acid in these particular vehicles, it was then attempted to enhance the solubility of betulinic acid by mixing different solvents according to the principles of co-solvency (Spiegel and Noseworthy, 1963, Yalkowsky and Roseman, 1981). Different solvent systems were evaluated to arrive at a suitable relevant stock composition. The stock composition would then be diluted with a final solvent or intravenous solution to yield a working formulation of 0.001-40 mg/ml.
(§2) Several methods and compositions were evaluated for their ability to solubilize betulinic acid and its derivatives in water miscible, physiologically acceptable vehicles. The solvents that were tried included DMA, dimethylsulfoxide (DMSO), absolute ethanol, glycerin, polyethylene glycols (PEGs) and propylene glycol, in addition to the aqueous diluting fluids normal saline, and 2-25% dextrose in solution.

[3] = Amount of drug dissolved in solvent/co-solvent/solubilizer compositions; format: physicochemical
Protocol: as §1, §2
A concentrated solution of betulinic acid or its derivatives was prepared by dissolving 50-200 mg of betulinic acid or its derivatives in 1 ml of DMA. The above stock solution was diluted with PEG (polyethylene glycol, MW 300) in a ratio of 1:4 to a concentration of 10-40 mg/ml.
(§3) In the following examples one or more co-solvents with a solubilizers or a combination of (solubilizers) was added to keep the drug in solution after diluting with an aqueous intravenous diluting fluid.

[4] = tested on: cultured human melanoma cells; conditions: cited from earlier work
[5] = Clarity / precipitation on dilution of the composition with aqueous diluting fluid; format: physicochemical
Protocol: as §1, §2, §3

[6] = Example 6: DMA 50% v/v, Tween 80 50% w/v

In the case of `C=C(C)[C@@H]1CC[C@]2(C(=O)O)CC[C@]3(C)[C@H](CC[C@@H]4[C@@]5(C)CC[C@H](O)C(C)(C)[C@@H]5CC[C@]43C)[C@@H]12` [betulinic acid], the tumor growth ([1]; athymic mice carrying human melanomas) is listed as “completely inhibited”, the toxicity ([1]; mouse, in vivo) is listed as “without toxicity” and the solubility ([2]; Absolute ethanol, organic solvent or mixture, Absolute ethanol, varies depending upon the derivative, read-out: SOLUBILITY) is listed as 3000 to 10000 µg/mL (≈ 6.57 to 21.9 mM). The solubility ([2]; Dimethylsulfoxide (DMSO), organic solvent or mixture, Dimethylsulfoxide (DMSO), read-out: SOLUBILITY) was no more than 100000 µg/mL, the solubility ([2]; Glycerin) was “insoluble” and the solubility ([2]; N,N-dimethylacetamide (DMA), organic solvent or mixture, N,N Dimethylacetamide (DMA), read-out: SOLUBILITY) was no more than 250000 µg/mL. The solubility ([2]; Polyethylene glycols (MW 200, 300, 400), organic solvent or mixture, Polyethylene glycols (MW 200, 300, 400), read-out: SOLUBILITY) was less than 5000 µg/mL, the solubility ([2]; Propylene glycol, organic solvent or mixture, Propylene glycol, read-out: SOLUBILITY) was less than 5000 µg/mL and the solubility ([2]; Water) was “insoluble”. For the same compound, the solubility ([2]; most of the aqueous solvents) was “insoluble”, the “drug concentration the composition could dissolve” value [3, 6] was no more than 20000 µg/mL and the “drug concentration the composition could dissolve” value ([3]; Example 7: Absolute ethanol 20-40% v/v, Tween 80 60-80% w/v) was no more than 20000 µg/mL. The “drug concentration the composition could dissolve” value ([3]; Example 8: Absolute ethanol 65% v/v, Tween 80 5% w/v, PEG 300 30% v/v) was “up to 6 mg/ml”, the “drug concentration the composition could dissolve” value ([3]; Example 9: Absolute ethanol 35% v/v, Tween 80 15% w/v, PEG 300 50% v/v) was “up to 4 mg/ml” and the “drug concentration that could be dissolved in the compositions” value ([3]; Example 16: DMA 20-50% v/v, PEG 300 20-40% v/v, Tween 80 5-30% w/v) was “Up to 22 mg/ml”. For the same compound, the “drug concentration the compositions could dissolve” value ([3]; Examples 12 and 13: DMA 20% v/v, MYRJ 52 20-30% w/v, Tween 20-50% w/v, with or without PEG 300 40% v/v) was no more than 20000 µg/mL, the “drug concentration the compositions could dissolve” value ([3]; Examples 14 and 15: DMA 20% v/v, Tween 80 20% w/v, PEG 300 55-57% v/v, Poloxamer 407 3% w/v or Lecithin 5% w/v) was 2000 to 15000 µg/mL and the solubility ([3]; organic solvent or mixture, Examples 10 and 11: DMA 10-20% v/v, Propylene glycol 10-20% v/v, Absolute ethanol 30-35% v/v, Tween 80 35-40% w/v, read-out: concentration range soluble in the system) was 2000 to 15000 µg/mL. The cytotoxicity [4] was “melanoma-specific cytotoxic agent”, the “behaviour on dilution with the aqueous diluting fluid” value ([5]; Example 3: 50 mg drug, DMA 20% v/v, PEG 300 80% v/v, even at concentrations as low as 0.001-0.1 mg/ml) was “immediate precipitation” and the “behaviour on dilution with the aqueous diluting fluid” value ([5]; Example 3: 200 mg drug, DMA 20% v/v, PEG 300 80% v/v) was “immediately precipitated out”. The “behaviour on dilution with aqueous diluting fluid” value ([5]; Example 4: 50 mg drug, DMA 50% v/v, PEG 300 50% v/v, diluted with 2-25% dextrose or normal saline) was “gave a viscous solution which gels over time although there are no signs of any precipitation of drug”, the “behaviour on dilution with aqueous diluting fluid” value [5, 6] was “immediately precipitated out” and the “time the drug solution remained clear on dilution” value ([5]; Example 7: Absolute ethanol 20-40% v/v, Tween 80 60-80% w/v, diluted with aqueous diluting fluid to 0.3-1.4 mg/ml) was no more than 3 h. The “behaviour on dilution with aqueous diluting fluid” value ([5]; Example 8: Absolute ethanol 65% v/v, Tween 80 5% w/v, PEG 300 30% v/v, diluted to 0.08-0.4 mg/ml) was “remained clear”, the “behaviour on dilution with aqueous diluting fluid” value ([5]; Example 9: Absolute ethanol 35% v/v, Tween 80 15% w/v, PEG 300 50% v/v, diluted to 0.08 to 0.4 mg/ml) was “remained clear” and the “behaviour on dilution with aqueous diluting fluid” value ([5]; Example 9 composition, diluted outside the range 0.08 to 0.4 mg/ml) was “immediate precipitation”. For the same compound, the “time the composition remained clear without any precipitation on dilution” value ([5]; Example 16: DMA 20-50% v/v, PEG 300 20-40% v/v, Tween 80 5-30% w/v, diluted with aqueous diluting fluid to 0.1-10 mg/ml) was “more than 5 days”, the “behaviour on dilution with an aqueous diluting fluid” value ([5]; Examples 10 and 11 compositions, at a lower concentration of 0.012-2 mg/ml) was “remains clear” and the “behaviour on dilution with aqueous diluting fluid” value ([5]; Examples 12 and 13 compositions containing MYRJ 52, diluted to 0.1-1.0 mg/ml) was “precipitated out in a few hours”. The “behaviour on dilution with the aqueous diluting fluid” value ([5]; Examples 14 and 15 compositions, only at lower dilutions (0.001-1 mg/ml)) was “remained soluble”.
